# Results published in PubChem BioAssay (NCI).
#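 Abbreviation: GI50, concentration required for 50% inhibition of growth. TGI marks complete inhibition of growth.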
# What was measured:
# Experiment in all cases: NCI anticancer screen, dose series, 384-well format
# MOLT-4 leukemia = system: MOLT-4 leukemia
# SF-268 CNS = system: SF-268 CNS
# T-47D breast = system: T-47D breast
# NCI-H226 lung = system: NCI-H226 lung
# UO-31 renal = system: UO-31 renal
# KM12 colon = system: KM12 colon
# NCI-H23 lung = system: NCI-H23 lung
# HCT-15 colon = system: HCT-15 colon
# DU-145 prostate = system: DU-145 prostate
# LOX IMVI melanoma = system: LOX IMVI melanoma
# SNB-75 CNS = system: SNB-75 CNS
# SK-MEL-28 melanoma = system: SK-MEL-28 melanoma
# HOP-62 NSCLC = system: HOP-62 NSCLC
# A549 NSCLC = system: A549 NSCLC
# NCI-H460 NSCLC = system: NCI-H460 NSCLC
# EKVX NSCLC = system: EKVX NSCLC
# HL-60(TB) leukemia = system: HL-60(TB) leukemia
# NCI-H322M lung = system: NCI-H322M lung
# COLO 205 colon = system: COLO 205 colon
# NCI-H522 lung = system: NCI-H522 lung
# TK-10 renal = system: TK-10 renal
# CAKI-1 renal = system: CAKI-1 renal
# SN12C renal = system: SN12C renal
# SF-539 CNS = system: SF-539 CNS
# MCF7 breast = system: MCF7 breast
# K-562 leukemia = system: K-562 leukemia
# OVCAR-4 ovarian = system: OVCAR-4 ovarian
# MDA-MB-468 breast = system: MDA-MB-468 breast
# IGROV1 ovarian = system: IGROV1 ovarian
# HT29 colon = system: HT29 colon
# RXF 393 renal = system: RXF 393 renal
# SW-620 colon = system: SW-620 colon
# HCC-2998 colon = system: HCC-2998 colon
# SF-295 CNS = system: SF-295 CNS
# 786-0 renal = system: 786-0 renal
# M14 melanoma = system: M14 melanoma
# ACHN renal = system: ACHN renal
# MALME-3M melanoma = system: MALME-3M melanoma
# HOP-92 NSCLC = system: HOP-92 NSCLC
# HCT-116 colon = system: HCT-116 colon
# NCI/ADR-RES ovarian = system: NCI/ADR-RES ovarian
# CCRF-CEM leukemia = system: CCRF-CEM leukemia
# OVCAR-8 ovarian = system: OVCAR-8 ovarian
# A498 renal = system: A498 renal
# UACC-62 melanoma = system: UACC-62 melanoma
# HS 578T breast = system: HS 578T breast
# PC-3 prostate = system: PC-3 prostate
# U251 glioblastoma = system: U251 glioblastoma
# RPMI-8226 leukemia = system: RPMI-8226 leukemia
# MDA-MB-435 melanoma = system: MDA-MB-435 melanoma
# SK-OV-3 ovarian = system: SK-OV-3 ovarian
# BT-549 breast = system: BT-549 breast
# OVCAR-3 ovarian = system: OVCAR-3 ovarian
# MDA-MB-231 breast = system: MDA-MB-231 breast
# SNB-19 CNS = system: SNB-19 CNS
smiles,measurement,setting,value
FC(F)(F)c1ccc(Nc2nc(-c3c(C(F)(F)F)nc4ccccn34)cs2)cc1,GI50,MOLT-4 leukemia,18.9 nM
same,TGI,MOLT-4 leukemia,37.4 nM
same,GI50,SF-268 CNS,35.4 nM
same,TGI,SF-268 CNS,1430 nM
same,GI50,T-47D breast,28.9 nM
same,TGI,T-47D breast,3230 nM
same,GI50,NCI-H226 lung,30.2 nM
same,TGI,NCI-H226 lung,86.7 nM
same,GI50,UO-31 renal,42.2 nM
same,TGI,UO-31 renal,3420 nM
same,GI50,KM12 colon,24.4 nM
same,TGI,KM12 colon,1080 nM
same,GI50,NCI-H23 lung,26.4 nM
same,TGI,NCI-H23 lung,89.6 nM
same,GI50,HCT-15 colon,32.4 nM
same,TGI,HCT-15 colon,1320 nM
same,GI50,DU-145 prostate,32.8 nM
same,TGI,DU-145 prostate,1370 nM
same,GI50,LOX IMVI melanoma,48.4 nM
same,TGI,LOX IMVI melanoma,2210 nM
same,GI50,SNB-75 CNS,22.1 nM
same,TGI,SNB-75 CNS,78.7 nM
same,GI50,SK-MEL-28 melanoma,52.1 nM
same,TGI,SK-MEL-28 melanoma,5080 nM
same,GI50,HOP-62 NSCLC,33.5 nM
same,TGI,HOP-62 NSCLC,1440 nM
same,GI50,A549 NSCLC,61.9 nM
same,TGI,A549 NSCLC,3740 nM
same,GI50,NCI-H460 NSCLC,30.2 nM
same,TGI,NCI-H460 NSCLC,83.3 nM
same,GI50,EKVX NSCLC,43.2 nM
same,TGI,EKVX NSCLC,2390 nM
same,GI50,HL-60(TB) leukemia,14.7 nM
same,TGI,HL-60(TB) leukemia,28.4 nM
same,GI50,NCI-H322M lung,50.4 nM
same,TGI,NCI-H322M lung,2560 nM
same,GI50,COLO 205 colon,26.5 nM
same,TGI,COLO 205 colon,67.1 nM
same,GI50,NCI-H522 lung,16.7 nM
same,TGI,NCI-H522 lung,36.6 nM
same,GI50,TK-10 renal,69.3 nM
same,TGI,TK-10 renal,5310 nM
same,GI50,CAKI-1 renal,26.4 nM
same,TGI,CAKI-1 renal,1850 nM
same,GI50,SN12C renal,38.6 nM
same,TGI,SN12C renal,2400 nM
same,GI50,SF-539 CNS,35.7 nM
same,TGI,SF-539 CNS,179 nM
same,GI50,MCF7 breast,30.3 nM
same,TGI,MCF7 breast,1450 nM
same,GI50,K-562 leukemia,27.6 nM
same,TGI,K-562 leukemia,89.8 nM
same,GI50,OVCAR-4 ovarian,1000 nM
same,TGI,OVCAR-4 ovarian,4460 nM
same,GI50,MDA-MB-468 breast,161 nM
same,TGI,MDA-MB-468 breast,310 nM
same,GI50,IGROV1 ovarian,73.2 nM
same,TGI,IGROV1 ovarian,7330 nM
same,GI50,HT29 colon,23.8 nM
same,TGI,HT29 colon,52.5 nM
same,GI50,RXF 393 renal,13.4 nM
same,TGI,RXF 393 renal,42.8 nM
same,GI50,SW-620 colon,33.9 nM
same,TGI,SW-620 colon,2600 nM
same,GI50,HCC-2998 colon,32.1 nM
same,TGI,HCC-2998 colon,375 nM
same,GI50,SF-295 CNS,32.1 nM
same,TGI,SF-295 CNS,356 nM
same,GI50,786-0 renal,32.7 nM
same,TGI,786-0 renal,1220 nM
same,GI50,M14 melanoma,25.2 nM
same,TGI,M14 melanoma,88.5 nM
same,GI50,ACHN renal,88.9 nM
same,TGI,ACHN renal,3190 nM
same,GI50,MALME-3M melanoma,32 nM
same,TGI,MALME-3M melanoma,6490 nM
same,GI50,HOP-92 NSCLC,41.1 nM
same,TGI,HOP-92 NSCLC,2970 nM
same,GI50,HCT-116 colon,32.8 nM
same,TGI,HCT-116 colon,1440 nM
same,GI50,NCI/ADR-RES ovarian,19.5 nM
same,TGI,NCI/ADR-RES ovarian,42.4 nM
same,GI50,CCRF-CEM leukemia,19.6 nM
same,TGI,CCRF-CEM leukemia,36.9 nM
same,GI50,OVCAR-8 ovarian,35.7 nM
same,TGI,OVCAR-8 ovarian,1150 nM
same,GI50,A498 renal,32.7 nM
same,TGI,A498 renal,1240 nM
same,GI50,UACC-62 melanoma,27.5 nM
same,TGI,UACC-62 melanoma,1590 nM
same,GI50,HS 578T breast,17.2 nM
same,TGI,HS 578T breast,37.5 nM
same,GI50,PC-3 prostate,32.6 nM
same,TGI,PC-3 prostate,1820 nM
same,GI50,U251 glioblastoma,42.4 nM
same,TGI,U251 glioblastoma,1490 nM
same,GI50,RPMI-8226 leukemia,18.3 nM
same,TGI,RPMI-8226 leukemia,36.8 nM
same,GI50,MDA-MB-435 melanoma,12.8 nM
same,TGI,MDA-MB-435 melanoma,33.2 nM
same,GI50,SK-OV-3 ovarian,34.8 nM
same,TGI,SK-OV-3 ovarian,1660 nM
same,GI50,BT-549 breast,39.1 nM
same,TGI,BT-549 breast,1240 nM
same,GI50,OVCAR-3 ovarian,16.6 nM
same,TGI,OVCAR-3 ovarian,39.1 nM
same,GI50,MDA-MB-231 breast,52.4 nM
same,TGI,MDA-MB-231 breast,4690 nM
same,GI50,SNB-19 CNS,47.1 nM
same,TGI,SNB-19 CNS,1960 nM
